Experimental data taken from patent publication US20080076772A1, “Anti-Inflammatory Agents” (Pharma Mar S.A. Sociedad Unipersonal, priority 2004, published 2008).

Columns and labels:
blood monocytes = assay: in vitro; details: 48 h
Protocol: Purified populations of human blood monocytes were prepared as previously described by differential density centrifugation on Ficoll and Percoll gradients (see Allavena, P., Piemonti, L., Longoni, D., Bernasconi, S., Stoppacciaro, A., Ruco, L., and Mantovani, A. IL-10 prevents the differentiation of monocytes to dendritic cells but promotes their maturation to macrophages. Eur J Immunol, 28: 359-369, 1998). […] Human thymocytes were isolated from resected thymus from pediatric patients undergoing surgery. Thymocytes were obtained by teasing and isolated on Percoll gradient.
Cells were cultured at 10^6 cells/ml in complete medium RPMI (Biochrom, Berlin, FRG)+10% FCS (Hyclone, Logan, Utah). In vitro differentiated macrophages were obtained by culture of monocytes Monocyte-Colony Stimulating Factor (M-CSF) Peprotech (20 ng/ml), for 5 days. In some experiments, macrophages were treated with LPS (100 ng/ml) Sigma Aldrich, IFN gamma (500 IU/ml) or IL-4 (20 ng/ml) (Schering Plough) for 24 h.
Cell viability was analyzed by DNA content in Flow Cytometry
Cells exposed to treatments were fixed with ethanol 70%, washed in PBS and stained with propidium iodide (PI) solution containing 10 ug/ml PI in PBS and 25 μl RNAse 10,000 units, overnight in the dark. PI incorporation was evaluated on at least 20,000 cells/sample using a FACS Calibur instrument (Becton Dickinson, Sunnyvale, Calif., USA), with a bandpass filter at 620 nm. Apoptosis was detected by staining with AnnexinV and PI. FACS analysis was performed using a bandpass filter 530 and 620 nm for green (AnnexinV) and red (PI) fluorescence respectively, in combination with a […] dichroic mirror.
Purified preparations of blood monocytes, lymphocytes and thymocytes were cultured with different concentrations of ecteinascidin 743 for 48 h. Cell viability was assessed by DNA analysis and propidium iodide (PI) staining in Flow cytometry.
A kinetics analysis of the cytotoxic effect of ecteinascidin 743 was performed in the presence of M-CSF. Cells were treated with M-CSF (20 ng/ml) and different concentrations of ecteinascidin 743. Samples were collected at the indicated times and tested for DNA analysis.
Viability was assessed by PI staining and analyzed by Flow Cytometry.

CCL2 [1] = assay: CCL2 production by LPS-stimulated monocytes (ELISA); type: cell-based, human; details: 24 h-incubation
Protocol: Supernatants of untreated cells or cells treated with ecteinascidin 743 or other anti-neoplastic agents were collected after 24 h culture and frozen. Monocytes, macrophages and TAM were stimulated with 100 ng/ml LPS to induce maximal cytokine production. Determination of cytokines CCL2, TNF and IL-6 was measured by specific ELISA following the manufacturer's instructions.
Monocytes and in vitro differentiated macrophages were stimulated with LPS (100 ng/ml). After 1 h LPS stimulation they were treated with ecteinascidin 743. After 16 h incubation, cell supernatants were harvested and tested in ELISA. Under these treatment conditions cell viability was usually >85% for concentrations up to 5 nM. […] Mean inhibition at 5 nM, for monocytes, was 65% (range 50-80%, n=5) and was 50% (range 25-75%, n=5) for in vitro differentiated macrophages. Results are mean+/−SE of 3-5 experiments
Similar results were obtained when monocytes were stimulated with LPS (100 ng/ ml) and treated with ET743 and the other ecteinascidin compounds, although the overall inhibition was less marked compared with the previous experiment where the tumor supernantant was used as CCL2-inducing stimulus.
CCL2 and TNF production by LPS-stimulated monocytes treated with the indicated doses of the anti-tumor agents was also tested. Cell supernatants were harvested after 24 h-incubation and tested in ELISA. […] None of these compounds interfered with the production of TNF.
A major finding of our work is the inhibitory activity of ecteinascidin 743 on the production of inflammatory cytokines. Among various inflammatory cytokines produced by monocyte/macrophages we have tested IL-6, TNF and the chemokine CCL2. CCL2 is a chemokine attracting monocytes and other leukocyte subsets, and is produced both by monocyte/macrophages and several tumour cells. It has been described that ovarian adenocarcinoma cells produce huge amounts of CCL2 and that their levels correlate with the macrophage content of tumours. CCL2 is therefore one of the most important factors regulating monocyte/macrophages recruitment at the tumour site. […] Thus, lower levels of CCL2 by TAM and tumour cells are likely to reduce the number of macrophages recruited at the tumour site. In the above described in vitro experiments ecteinascidin 743 was present throughout the 16-h culture period. We also checked whether a shorter in vitro exposure to ecteinascidin 743 was sufficient to affect cytokine production. Monocytes exposed to ecteinascidin 743 were washed after 1 hour culture and replaced in fresh medium.

CCL2 [2] = assay: CCL2 production induced by exposure of monocytes to tumor cell supernatants; type: cell-based, human
Protocol: We also tested five other ecteinascidin compounds (Table 2) for their capacity to inhibit the production of CCL2 by human monocytes in vitro. […] The extent of inhibition of ET637 Derivative A was even more pronouced compared to ET743. In Table 2 is shown that the production of CCL2, induced by exposure of monocytes to tumor cell supernatants, is inhibited up to 80% and 97% at 2.5 and 5 nM, respectively, in two different donors. In the same experiment ET743 inhibited between 30% and 70%.

`CC(=O)O[C@H]1C(=O)[C@@]2(C)[C@H]([C@H](OC(=O)c3ccccc3)[C@]3(O)C[C@H](OC(=O)[C@H](O)[C@@H](NC(=O)c4ccccc4)c4ccccc4)C(C)=C1C3(C)C)[C@]1(OC(C)=O)CO[C@@H]1C[C@@H]2O` [Taxol, reference compound] was tested, and the toxicity on monocytes (blood monocytes; 300 nM) was “ineffective” and the “effect on CCL2 production by LPS-stimulated monocytes” value (“effect on CCL2 production” for short) (CCL2 [1]; indicated doses (FIG. 9B)) was “ineffective”.

For `N.N.[Cl][Pt][Cl]` [Cisplatin, reference compound], the toxicity on monocytes (blood monocytes; very high concentrations (40 μM)) was “Significant toxicity” and the “effect on CCL2 production” value (CCL2 [1]; 10 μM) was “reduced CCL2 production”.

Work on `COc1cc2c(cc1O)CCN[C@]21CS[C@@H]2c3c(OC(C)=O)c(C)c4c(c3[C@H](COC1=O)N1C[C@@H]3Cc5cc(C)c(OC)c(O)c5[C@H]([C@H]21)N3C)OCO4` [ET745] yielded an inhibition at 0.005 µM (CCL2 [2]; Homo sapiens, Monocyte, read-out: % inhibition of CCL2 production, Donor A) of 23%.

With `COc1c(C)cc2c(c1O)C1C3[C@@H]4SCC(=O)C(=O)OC[C@@H](c5c6c(c(C)c(OC(C)=O)c54)OCO6)N3[C@@H](O)[C@H](C2)N1C` (some centres unmarked) [ET594] the “% inhibition of CCL2 production, Donor A” value (CCL2 [2]; 5 nM) was 25% and the “% inhibition of CCL2 production, Donor A” value (CCL2 [2]; 10 nM) was 25%.

With `COc1cccc2c1C(=O)c1c(O)c3c(c(O)c1C2=O)C[C@@](O)(C(=O)CO)C[C@@H]3O[C@H]1C[C@H](N)[C@H](O)[C@H](C)O1` [Doxorubicin, reference compound] the “effect on CCL2 production” value (CCL2 [1]; indicated doses (FIG. 9B)) was “ineffective”.
